Columns and labels:
EP2 = EP2 (Homo sapiens (Human), UniProt P43116);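 further: antagonism of PGE2-stimulated cAMP accumulation in SF295 human glioblastoma cells with endogenous EP2, cAMP read by HTRF, expressed relative to DMSO control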
Description: Human tumor cell lines expressing endogenously either EP4 or EP2 are used and cAMP accumulation in cells upon PGE2 stimulation is monitored. SF295 glioblastoma cells express high endogenous EP2 and no EP4, whereas BT549 breast cancer cells, express high endogenous EP4 levels and very low EP2 levels.
As a detection method for cAMP the HTRF (homogeneous time resolved fluorescence) Cisbio kit (HTRF cAMP dynamic 2 kit 20′000 tests Cisbio Cat. #62AM4PEC) was used, which is based on a competitive immunoassay using a Cryptate-labeled anti-cAMP antibody and d2-labeled cAMP. Native cAMP produced by cells or unlabeled cAMP (for the standard curve) compete with exogenously added d2-labeled cAMP (acceptor) for binding to monoclonal anti-cAMP-Eu3+Cryptate (donor). A FRET signal (Fluorescence Resonance Energy Transfer) is obtained only if the labeled anti-cAMP antibody binds the d2 labelled cAMP, thus the specific signal (i.e. energy transfer) is inversely proportional to the concentration of cAMP in the standard or sample.
The SF295 cells (NCI/No. 0503170) are detached from culture dishes with a cell dissociation buffer (Invitrogen, 13151-014), and collected in growing medium (GM: RPM11640 (Invitrogen 21875)/10% FCS, 1% Penicilin/streptomycin). Cells are counted washed and resuspended in assay buffer (AB; HBSS, 20 mM HEPES, 0.2% BSA; 2 mM IBMX). 4,000 cells in 5 μl of AB are seeded per well of a small volume 384 well plate (black with flat bottom, Greiner 784076).
PGE2 (Cayman 14010, stock solution: 75 μM in DMSO) is used as agonist at 75 nM final concentration, corresponding to EC80.
Two point five microliters of diluted compounds are transferred into the assay plate. Plate is pre-incubated 45 minutes at room temperature. Subsequently, 2.5 microliters of PGE2 (final conc. 75 nM) are transferred into the assay plate. Plate is incubated 30 minutes at room temperature. Five μl of each donor (anti-cAMP cryptate) and acceptor (cAMP-d2) are added and the plate is incubated another hour at room temperature in the dark and then read using a BMG LABTECH PHERAstar reader (Excitation: 337 nm, Emission: 620 and 665 nm).
The obtained Delta F (fluorescence) values (665 nm/620 nM) are converted into % cAMP values using the measurements of the cAMP calibrator provided in the kit. For each compound concentration the percentage of cAMP compared to DMSO control value as average±STDEV (each concentration is measured in duplicate) is calculated.
IC50 values and curves are generated with XLfit software (IDBS) using Dose-Response One Site model 203. When compounds were measured multiple times, mean values are given.

EP4 = EP4 (Homo sapiens (Human), UniProt P35408); assay: hEP4 cAMP assay (BT549 breast cancer cells, HTRF cAMP); format: cell-based
Description: Plate is pre-incubated 45 minutes at room temperature. Subsequently, 2.5 microliters of PGE2 (final conc. 6 nM) are transferred into the assay plate. Plate is incubated 30 minutes at room temperature.

[1] = (*): measured using the cAMP assay
[2] = antagonistic activity, mean values where measured multiple times

EP2, sequence (P43116 whole entry): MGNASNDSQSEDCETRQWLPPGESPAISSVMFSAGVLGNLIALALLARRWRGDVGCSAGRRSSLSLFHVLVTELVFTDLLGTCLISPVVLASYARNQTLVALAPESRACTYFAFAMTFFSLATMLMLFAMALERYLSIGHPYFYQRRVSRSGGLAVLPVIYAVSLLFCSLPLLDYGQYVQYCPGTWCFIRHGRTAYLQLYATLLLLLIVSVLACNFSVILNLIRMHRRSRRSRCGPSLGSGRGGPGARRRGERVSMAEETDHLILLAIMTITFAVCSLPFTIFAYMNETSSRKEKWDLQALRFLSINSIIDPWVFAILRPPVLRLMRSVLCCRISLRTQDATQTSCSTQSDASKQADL
EP4, sequence (P35408 whole entry): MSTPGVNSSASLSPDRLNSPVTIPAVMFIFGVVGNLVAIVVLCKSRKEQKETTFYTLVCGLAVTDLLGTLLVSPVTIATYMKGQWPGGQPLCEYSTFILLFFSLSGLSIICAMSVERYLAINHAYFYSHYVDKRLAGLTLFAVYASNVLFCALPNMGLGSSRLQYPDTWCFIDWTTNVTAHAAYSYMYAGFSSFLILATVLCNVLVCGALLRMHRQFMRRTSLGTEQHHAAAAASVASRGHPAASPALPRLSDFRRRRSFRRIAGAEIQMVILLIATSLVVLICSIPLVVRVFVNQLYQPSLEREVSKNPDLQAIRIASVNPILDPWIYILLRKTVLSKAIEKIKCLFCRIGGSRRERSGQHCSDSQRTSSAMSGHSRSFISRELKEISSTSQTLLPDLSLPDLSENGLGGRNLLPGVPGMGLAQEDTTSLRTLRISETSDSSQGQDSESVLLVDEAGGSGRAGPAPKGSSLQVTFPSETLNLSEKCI

CCOc1cc(-c2cc(NCCn3c(C#N)cc4c(OC)ccc(F)c43)ncn2)sc1/C=C/C(=O)O [Example 931, (E)-3-(5-{6-[2-(2-Cyano-7-fluoro-4-methoxy-indol-1-yl)-ethylamino]-pyrimidin-4-yl}-3-ethoxy-thiophen-2-yl)-acrylic acid]
IC50 (EP2): 35 nM | IC50 (EP4; [1]): 14 nM

CCOc1cc(-c2cc(NCCn3c(C#N)cc4c(Cl)cc(F)c(F)c43)ncn2)sc1C(=O)O [Example 941, 5-{6-[2-(4-Chloro-2-cyano-6,7-difluoro-indol-1-yl)-ethylamino]-pyrimidin-4-yl}-3-ethoxy-thiophene-2-carboxylic acid]
IC50 (EP2): 11 nM | IC50 (EP4; [1]): 29 nM

CCNc1cc(-c2cc(NCCn3c(C)cc4c(OC)ccc(Cl)c43)ncn2)ccc1C(=O)O [compound 396]
IC50 (EP2): 1 nM | IC50 (EP4; [2]): 65 nM

CCNc1cc(-c2cc(NCCn3c(C)cc4c(OC)ccc(F)c43)ncn2)ccc1C(=O)O [compound 397]
IC50 (EP2): 1 nM | IC50 (EP4; [2]): 20 nM

CCNc1cc(-c2cc(NCCn3c(C)cc4c(OC)cccc43)ncn2)cc(F)c1C(=O)O [compound 398]
IC50 (EP2): 3 nM | IC50 (EP4; [2]): 178 nM

CCNc1cc(-c2cc(NCCn3c(C)cc4c(F)ccc(OC)c43)ncn2)ccc1C(=O)O [compound 399]
IC50 (EP2): 17 nM | IC50 (EP4; [2]): 483 nM

CCCOc1cc(-c2cc(NCCn3c(C)cc4c(OC)cccc43)ncn2)ccc1C(=O)O [compound 400]
IC50 (EP2): 6 nM | IC50 (EP4; [2]): 418 nM

COc1cc(-c2cc(NCCn3c(C)cc4c(OC)ccc(F)c43)ncn2)cc(Cl)c1C(=O)O [compound 401]
IC50 (EP2): 19 nM | IC50 (EP4; [2]): 182 nM

CCOc1cc(-c2cc(NCCn3c(C)cc4c(OC)cc(Cl)cc43)ncn2)ccc1C(=O)O [compound 402]
IC50 (EP2): 10 nM | IC50 (EP4; [2]): 159 nM

CCOc1cc(-c2cc(NCCn3c(C)cc4c(OC)cc(F)cc43)ncn2)ccc1C(=O)O [compound 403]
IC50 (EP2): 20 nM | IC50 (EP4; [2]): 128 nM

COc1cc(-c2cc(NCCn3c(C)cc4c(OC)ccc(Cl)c43)ncn2)cc(C)c1C(=O)O [compound 404]
IC50 (EP2): 96 nM | IC50 (EP4; [2]): 448 nM

CCOc1cc(-c2cc(NCCn3c(C)cc4c(OC)ccc(Cl)c43)ncn2)ccc1C(=O)O [compound 405]
IC50 (EP2): 18 nM | IC50 (EP4; [2]): 356 nM

COc1cc(-c2cc(NCCn3c(C)cc4c(OC)ccc(F)c43)ncn2)cc(C)c1C(=O)O [compound 406]
IC50 (EP2): 47 nM | IC50 (EP4; [2]): 266 nM

CCOc1cc(-c2cc(NCCn3c(C)cc4c(OC)cccc43)ncn2)cc(F)c1C(=O)O [compound 407]
IC50 (EP2): 15 nM | IC50 (EP4; [2]): 636 nM

CCOc1cc(-c2cc(NCCn3c(C)cc4c(OC)cc(F)c(F)c43)ncn2)sc1C(=O)O [compound 408]
IC50 (EP2): 4 nM | IC50 (EP4; [2]): 3 nM

CCOc1cc(-c2cc(NCCn3c(C)cc4c(OC)c(Cl)cc(F)c43)ncn2)sc1C(=O)O [compound 409]
IC50 (EP2): 345 nM | IC50 (EP4; [2]): 146 nM

Cc1ccc(Cl)c2c1cc(C)n2CCNc1cc(-c2ccc(C(=O)O)c(SC(C)C)c2)ncn1 [compound 410]
IC50 (EP2): 51 nM | IC50 (EP4; [2]): 390 nM

Cc1cc2c(F)c(F)ccc2n1CCNc1cc(-c2ccc(C(=O)O)c(CC(C)C)c2)ncn1 [compound 411]
IC50 (EP2): 20 nM | IC50 (EP4; [2]): 443 nM

CCCc1cc(-c2cc(NCCn3c(C)cc4c(C)cc(F)cc43)ncn2)cc(Cl)c1C(=O)O [compound 412]
IC50 (EP2): 36 nM | IC50 (EP4; [2]): 79 nM

CCCc1cc(-c2cc(NCCn3c(C)cc4c(C)ccc(F)c43)ncn2)cc(Cl)c1C(=O)O [compound 413]
IC50 (EP2): 29 nM | IC50 (EP4; [2]): 55 nM

CCCc1cc(-c2cc(NCCn3c(C)cc4cc(C)cc(F)c43)ncn2)cc(Cl)c1C(=O)O [compound 414]
IC50 (EP2): 35 nM | IC50 (EP4; [2]): 199 nM

CCCc1cc(-c2cc(NCCn3c(C)cc4c(C)cc(F)cc43)ncn2)cc(F)c1C(=O)O [compound 415]
IC50 (EP2): 53 nM | IC50 (EP4; [2]): 153 nM

CCCc1cc(-c2cc(NCCn3c(C)cc4c(C)ccc(F)c43)ncn2)cc(F)c1C(=O)O [compound 416]
IC50 (EP2): 14 nM | IC50 (EP4; [2]): 99 nM

CCCc1cc(-c2cc(NCCn3c(C)cc4cc(C)cc(F)c43)ncn2)cc(F)c1C(=O)O [compound 417]
IC50 (EP2): 28 nM | IC50 (EP4; [2]): 396 nM

Cc1cc2c(Cl)cc(Cl)cc2n1CCNc1cc(-c2ccc(C(=O)O)c(CC(C)C)c2)ncn1 [compound 418]
IC50 (EP2): 74 nM | IC50 (EP4; [2]): 691 nM

Cc1cc2c(Cl)cc(F)cc2n1CCNc1cc(-c2ccc(C(=O)O)c(CC(C)C)c2)ncn1 [compound 419]
IC50 (EP2): 90 nM | IC50 (EP4; [2]): 403 nM

Cc1cc(F)c(F)c2c1cc(C)n2CCNc1cc(-c2cc(C(F)(F)F)c(C(=O)O)s2)ncn1 [compound 420]
IC50 (EP2): 95 nM | IC50 (EP4; [2]): 93 nM

Cc1cc(Cl)cc2c1cc(C)n2CCNc1cc(-c2ccc(C(=O)O)c(CC(C)C)c2)ncn1 [compound 421]
IC50 (EP2): 60 nM | IC50 (EP4; [2]): 342 nM

Cc1cc(F)cc2c1cc(C)n2CCNc1cc(-c2ccc(C(=O)O)c(CC(C)C)c2)ncn1 [compound 422]
IC50 (EP2): 34 nM | IC50 (EP4; [2]): 148 nM

Cc1nc(NCCn2c(C)cc3c(C)cc(F)cc32)cc(-c2cc(C(F)(F)F)c(C(=O)O)s2)n1 [compound 423]
IC50 (EP2): 44 nM | IC50 (EP4; [2]): 35 nM

Cc1cc2c(Cl)ccc(Cl)c2n1CCNc1cc(-c2ccc(C(=O)O)c(SC(C)C)c2)ncn1 [compound 424]
IC50 (EP2): 31 nM | IC50 (EP4; [2]): 257 nM

CCCc1cc(-c2cc(NCCn3c(C)cc4cc(Cl)cc(F)c43)ncn2)cc(F)c1C(=O)O [compound 425]
IC50 (EP2): 73 nM | IC50 (EP4; [2]): 521 nM

CCCc1cc(-c2cc(NCCn3c(C)cc4cc(F)cc(Cl)c43)ncn2)cc(Cl)c1C(=O)O [compound 426]
IC50 (EP2): 17 nM | IC50 (EP4; [2]): 759 nM

CCCc1cc(-c2cc(NCCn3c(C)cc4cc(Cl)cc(F)c43)ncn2)cc(Cl)c1C(=O)O [compound 427]
IC50 (EP2): 85 nM | IC50 (EP4; [2]): 240 nM

COc1cccc2c1cc(C)n2CCNc1cc(-c2ccc(C(=O)O)c(CC(C)C)c2)ncn1 [compound 428]
IC50 (EP2): 11 nM | IC50 (EP4; [2]): 164 nM

CCc1cc(-c2cc(NCCn3c(C)cc4c(OC)ccc(Cl)c43)ncn2)cc(F)c1C(=O)O [compound 429]
IC50 (EP2): 25 nM | IC50 (EP4; [2]): 775 nM

CCOc1cc(-c2cc(NCCn3c(C)cc4c(C)c(F)cc(F)c43)ncn2)ccc1C(=O)O [compound 430]
IC50 (EP2): 9 nM | IC50 (EP4; [2]): 88 nM

CCOc1cc(-c2cc(NCCn3c(C)cc4c(C)cc(F)c(F)c43)ncn2)ccc1C(=O)O [compound 431]
IC50 (EP2): 51 nM | IC50 (EP4; [2]): 191 nM

CCOc1cc(-c2cc(NCCn3c(C)cc4c(C)cc(F)cc43)ncn2)cc(Cl)c1C(=O)O [compound 432]
IC50 (EP2): 21 nM | IC50 (EP4; [2]): 117 nM

CCOc1cc(-c2cc(NCCn3c(C)cc4c(C)ccc(F)c43)ncn2)cc(Cl)c1C(=O)O [compound 433]
IC50 (EP2): 61 nM | IC50 (EP4; [2]): 108 nM

CCOc1cc(-c2cc(NCCn3c(C)cc4c(C)ccc(F)c43)ncn2)cc(F)c1C(=O)O [compound 435]
IC50 (EP2): 13 nM | IC50 (EP4; [2]): 159 nM

CCOc1cc(-c2cc(NCCn3c(C)cc4cc(C)cc(F)c43)ncn2)cc(F)c1C(=O)O [compound 436]
IC50 (EP2): 46 nM | IC50 (EP4; [2]): 787 nM

CCc1cc(-c2cc(NCCn3c(C)cc4c(OC)ccc(F)c43)ncn2)cc(F)c1C(=O)O [compound 437]
IC50 (EP2): 15 nM | IC50 (EP4; [2]): 201 nM

CCc1cc(-c2cc(NCCn3c(C)cc4c(OC)cc(F)cc43)ncn2)cc(Cl)c1C(=O)O [compound 438]
IC50 (EP2): 64 nM | IC50 (EP4; [2]): 106 nM

CCCOc1cc(-c2cc(NCCn3c(C)cc4c(C)cc(F)cc43)ncn2)ccc1C(=O)O [compound 439]
IC50 (EP2): 19 nM | IC50 (EP4; [2]): 272 nM

CCOc1cc(-c2cc(NCCn3c(C)cc4c(C)cc(F)cc43)nc(C)n2)ccc1C(=O)O [compound 440]
IC50 (EP2): 57 nM | IC50 (EP4; [2]): 905 nM

CCCOc1cc(-c2cc(NCCn3c(C)cc4c(C)ccc(F)c43)ncn2)ccc1C(=O)O [compound 441]
IC50 (EP2): 11 nM | IC50 (EP4; [2]): 113 nM

CCCc1cc(-c2cc(NCCn3c(C)cc4c(OC)ccc(Cl)c43)ncn2)ccc1C(=O)O [compound 442]
IC50 (EP2): 12 nM | IC50 (EP4; [2]): 234 nM

CCCc1cc(-c2cc(NCCn3c(C)cc4cc(OC)cc(F)c43)ncn2)ccc1C(=O)O [compound 443]
IC50 (EP2): 175 nM | IC50 (EP4; [2]): 487 nM

CCCc1cc(-c2cc(NCCn3c(C)cc4c(OC)cccc43)ncn2)cc(Cl)c1C(=O)O [compound 444]
IC50 (EP2): 7 nM | IC50 (EP4; [2]): 94 nM

CCCc1cc(-c2cc(NCCn3c(C)cc4c(OC)cccc43)ncn2)cc(F)c1C(=O)O [compound 445]
IC50 (EP2): 5 nM | IC50 (EP4; [2]): 235 nM

COc1ccc(F)c2c1cc(C)n2CCNc1cc(-c2cc(C(F)(F)F)c(C(=O)O)s2)ncn1 [compound 446]
IC50 (EP2): 16 nM | IC50 (EP4; [2]): 8 nM

COc1cc(F)cc2c1cc(C)n2CCNc1cc(-c2cc(C(F)(F)F)c(C(=O)O)s2)ncn1 [compound 447]
IC50 (EP2): 28 nM | IC50 (EP4; [2]): 27 nM

COc1c(F)cc(Cl)c2c1cc(C)n2CCNc1cc(-c2ccc(C(=O)O)c(SC)c2)ncn1 [compound 448]
IC50 (EP2): 46 nM | IC50 (EP4; [2]): 508 nM

CCOc1cc(-c2cc(NCCn3c(C)cc4c(F)c(F)cc(F)c43)ncn2)ccc1C(=O)O [compound 449]
IC50 (EP2): 4 nM | IC50 (EP4; [2]): 242 nM

CCOc1cc(-c2cc(NCCn3c(C)cc4c(Cl)ccc(F)c43)ncn2)cc(Cl)c1C(=O)O [compound 450]
IC50 (EP2): 9 nM | IC50 (EP4; [2]): 117 nM

CCNc1cc(-c2cc(NCCn3c(C)cc4c(C#N)ccc(F)c43)ncn2)ccc1C(=O)O [compound 451]
IC50 (EP2): 2 nM | IC50 (EP4; [2]): 240 nM

Cc1ccc(Cl)c2c1cc(C)n2CCNc1cc(-c2ccc(C(=O)O)c(SC3CCC3)c2)ncn1 [compound 452, 4-{6-[2-(7-Chloro-2,4-dimethyl-indol-1-yl)-ethylamino]-pyrimidin-4-yl}-2-cyclobutylsulfanyl-benzoic acid]
IC50 (EP2): 34 nM | IC50 (EP4; [2]): 468 nM

Source: patent US12011444B2, “N-substituted indole derivatives as PGE2 receptor modulators” (Idorsia Pharmaceuticals Ltd, priority 2015, dated 2024)
